# ChEMBL document CHEMBL1201862, “PubChem BioAssay data set” (2004)
# The source made the active and inactive calls.
# Assays:
# [1] = biological target: T1, Tyrosyl-DNA phosphodiesterase 2 (Homo sapiens, UniProt O95551); assay: potency against TDP2 phosphodiesterase activity – biochemical, epi absorbance, IC50, dose response (AID 743297)
# T1 sequence (O95551 whole entry): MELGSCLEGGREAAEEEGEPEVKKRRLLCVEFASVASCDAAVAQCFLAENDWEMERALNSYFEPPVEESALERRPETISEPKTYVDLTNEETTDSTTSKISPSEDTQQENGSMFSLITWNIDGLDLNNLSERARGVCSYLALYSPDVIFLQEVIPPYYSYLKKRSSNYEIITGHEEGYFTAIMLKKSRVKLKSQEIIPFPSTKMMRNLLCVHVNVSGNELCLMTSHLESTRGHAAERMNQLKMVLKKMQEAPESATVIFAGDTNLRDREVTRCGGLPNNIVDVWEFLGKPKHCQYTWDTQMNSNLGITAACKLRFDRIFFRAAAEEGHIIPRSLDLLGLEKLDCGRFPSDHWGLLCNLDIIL
# [2] = blockers of bursicon-stimulated LGR2 cAMP reporter – cell-based, HEK293, CRE-luciferase reporter, cherry pick, set 2, dose response (AID 743343); assay type: functional;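 further: transfected cells were stimulated with diluted bursicon conditioned medium after compound addition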
# [3] = blockade of melanocortin 4 receptor signaling – cell-based, plate reader, cherry pick, counter-screen for LGR2 antagonist project, dose response (AID 743444); assay type: functional;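 further: transfected HEK 293 cells stimulated with alpha-MSH peptide; potency of inhibitors of the alpha-MSH evoked signal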
# [4] = toxicity toward HepG2 liver cells – cell-based, plate reader, cherry-pick, antagonist series, cytotoxicity control, dose response (AID 743416); assay type: functional
# [5] = A549 cell cytotoxicity, dose response, cytotoxicity control, plate reader, cherry-pick, antagonist series (AID 743412); assay type: functional, cell-based
# Protein RecA = biological target: T2, Protein RecA (Mycobacterium tuberculosis, UniProt P9WHJ3); assay: Fluorescence Cell-Free Homogeneous Dose Retest to Identify Inhibitors of RecA-Intein Splicing Activity. [Related pubchem assays (depositor defined):AID2097, AID2223, AID489010, AID492950]; assay type: functional
# T2 sequence (P9WHJ3 whole entry): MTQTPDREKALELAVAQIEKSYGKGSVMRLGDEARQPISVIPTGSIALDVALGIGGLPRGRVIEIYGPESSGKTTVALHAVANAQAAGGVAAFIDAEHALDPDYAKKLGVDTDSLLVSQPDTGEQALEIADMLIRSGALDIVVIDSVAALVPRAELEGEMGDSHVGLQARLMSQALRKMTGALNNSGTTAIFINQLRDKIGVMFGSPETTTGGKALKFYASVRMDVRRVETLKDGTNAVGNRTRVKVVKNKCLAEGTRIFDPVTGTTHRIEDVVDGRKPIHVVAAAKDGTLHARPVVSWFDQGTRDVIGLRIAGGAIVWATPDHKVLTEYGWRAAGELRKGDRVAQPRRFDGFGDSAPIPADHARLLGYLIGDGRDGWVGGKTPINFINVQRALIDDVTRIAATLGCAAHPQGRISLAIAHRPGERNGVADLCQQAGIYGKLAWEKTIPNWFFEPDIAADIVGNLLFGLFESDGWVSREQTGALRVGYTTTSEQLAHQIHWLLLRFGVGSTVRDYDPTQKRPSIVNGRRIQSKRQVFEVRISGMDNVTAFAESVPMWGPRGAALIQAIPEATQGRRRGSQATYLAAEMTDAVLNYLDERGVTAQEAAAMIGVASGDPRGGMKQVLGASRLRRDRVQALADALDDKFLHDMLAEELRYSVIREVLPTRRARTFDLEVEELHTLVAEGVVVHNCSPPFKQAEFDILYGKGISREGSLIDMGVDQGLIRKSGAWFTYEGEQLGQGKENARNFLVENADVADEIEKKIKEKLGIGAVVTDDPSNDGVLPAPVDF
# [6] = biological target: T3, Replicative DNA helicase DnaB (Mycobacterium tuberculosis, UniProt P9WMR3); assay: DnaB intein splicing inhibitors, dose response, biochemical, cell-free fluorescence (AID 449749); assay type: functional
# T3 sequence (P9WMR3 whole entry): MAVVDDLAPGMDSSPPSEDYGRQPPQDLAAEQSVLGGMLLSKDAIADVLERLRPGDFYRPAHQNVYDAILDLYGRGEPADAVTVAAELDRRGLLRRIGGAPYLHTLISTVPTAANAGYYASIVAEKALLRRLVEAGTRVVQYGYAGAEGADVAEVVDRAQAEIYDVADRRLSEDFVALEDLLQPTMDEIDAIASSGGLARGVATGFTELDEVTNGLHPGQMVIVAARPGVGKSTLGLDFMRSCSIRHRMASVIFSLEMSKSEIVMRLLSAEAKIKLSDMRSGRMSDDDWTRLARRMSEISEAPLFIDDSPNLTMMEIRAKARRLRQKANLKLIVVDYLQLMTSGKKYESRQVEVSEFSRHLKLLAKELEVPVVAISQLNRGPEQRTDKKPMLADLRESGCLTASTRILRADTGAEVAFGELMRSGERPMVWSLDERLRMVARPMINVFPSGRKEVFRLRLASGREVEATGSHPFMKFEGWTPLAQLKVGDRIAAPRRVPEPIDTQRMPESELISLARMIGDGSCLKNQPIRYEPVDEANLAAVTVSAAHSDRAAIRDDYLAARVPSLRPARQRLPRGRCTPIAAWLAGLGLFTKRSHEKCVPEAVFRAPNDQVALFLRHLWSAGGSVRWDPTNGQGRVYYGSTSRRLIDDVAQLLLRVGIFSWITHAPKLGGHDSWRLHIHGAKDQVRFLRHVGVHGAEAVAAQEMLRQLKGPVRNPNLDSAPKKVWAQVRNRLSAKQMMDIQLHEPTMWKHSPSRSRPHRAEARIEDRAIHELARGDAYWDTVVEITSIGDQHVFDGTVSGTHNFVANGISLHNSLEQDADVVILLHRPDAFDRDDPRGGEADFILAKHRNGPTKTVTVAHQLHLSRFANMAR
SMILES,IC50 [1],AC50 [2],AC50 [3],AC50 [4],AC50 [5],EC50 (Protein RecA),AC50 [6]
O=C1c2ccccc2C(=O)C12OC2c1cccc2ccccc12 (centres undefined),5.07 µM (active),,,,,,
CCC(COC)Oc1cc(NCc2ccccc2)c2ncn(C(C)C)c2c1 (centres undefined),> 42.8 µM (inactive),23.1 µM (active),33.5 µM (active),19.6 µM (active),26.1 µM (active),,
O=c1[nH]c(N2CCOCC2)cc2ccccc12,,,,,,> 380 µM (inconclusive),> 120 µM (inactive)
O=[N+]([O-])c1ccc(Sc2nc3ccccc3o2)c([N+](=O)[O-])c1,,24.9 µM (active),28.8 µM (active),6.16 µM (active),6.63 µM (active),1.5 µM (active),2.05 µM (active)
